# Source: patent US6476187B1, “Methods and reagents for discovering and using mammalian melanocortin receptor agonists and antagonists to modulate feeding behavior in animals” (Oregon Health & Sciences University, priority 1992, dated 2002)
# Residues, ends and D or L forms follow the SMILES beside them.
# Legend:
# rat MC3-R = target: T1, rat MC3-R (Rattus norvegicus, UniProt P32244); assay: intracellular cAMP production in 293 cells expressing MC3-R; assay type: cell-based; conditions: 1 h at 37° C.
# T1 construct: The entire coding region of the MC-3 receptor cDNA insert; expressed in transfected cells; host or cells: human 293 cells, pcDNA/neo I, G418-selected
# T1 sequence (P32244 whole entry): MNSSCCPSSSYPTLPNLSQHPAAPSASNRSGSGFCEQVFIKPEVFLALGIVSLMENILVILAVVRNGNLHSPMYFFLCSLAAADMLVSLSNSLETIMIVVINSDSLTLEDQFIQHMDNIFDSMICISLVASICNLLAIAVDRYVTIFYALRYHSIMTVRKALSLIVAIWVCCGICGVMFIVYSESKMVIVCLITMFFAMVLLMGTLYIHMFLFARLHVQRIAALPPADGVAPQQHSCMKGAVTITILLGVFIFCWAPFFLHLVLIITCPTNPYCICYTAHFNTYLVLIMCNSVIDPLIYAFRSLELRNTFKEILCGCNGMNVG
# Experimental: cAMP production assays as described above were also used to analyze expression of MC3-R in cells transfected with the expression vectors described herein as follows. […] Following hormone treatment, the cells were washed twice with phosphate buffered saline and intracellular cAMP extracted by lysing the cells with 1 mL of 60% ethanol.
# [1] = target: T2, murine αMSH receptor (MC-1) (Mus musculus, UniProt Q01727); assay: intracellular cAMP accumulation in 293 cells transfected with mouse αMSH receptor; assay type: cell-based; conditions: 293 cells expressing murine αMSH receptor
# T2 construct: excising the entire coding region of the αMSH^R (MC-1) cDNA insert comprising a 2.1 kb fragment; expressed in transfected cells; host or cells: human 293 cells, pcDNAI/neo, G418-selected
# T2 sequence (Q01727 whole entry, the tested form may be a part): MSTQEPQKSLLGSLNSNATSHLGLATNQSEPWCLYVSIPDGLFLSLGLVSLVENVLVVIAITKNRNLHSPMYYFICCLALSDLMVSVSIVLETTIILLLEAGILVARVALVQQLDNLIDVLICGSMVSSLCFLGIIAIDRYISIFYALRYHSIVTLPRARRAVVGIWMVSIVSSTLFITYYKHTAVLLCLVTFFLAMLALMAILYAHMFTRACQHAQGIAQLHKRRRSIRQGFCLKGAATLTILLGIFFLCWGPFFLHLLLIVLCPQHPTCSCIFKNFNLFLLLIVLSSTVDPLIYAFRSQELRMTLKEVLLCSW
# Experimental: After transfection, cells were cultured in DMEM media supplemented with 10% calf serum in a 3% CO2 atmosphere at 37° C. Selection was performed with neomycin (G418; GIBCO) at a concentration of 1000 μg/mL; selection was started 72 hr after transfection and continued for 3 weeks.
# Following hormone treatment, the cells were washed twice with phosphate buffered saline and intracellular cAMP extracted by lysing the cells with 1 mL of 60% ethanol.
# human MC-4-R = human MC-4-R (Homo sapiens, UniProt P32245); conditions: Lu et al., 1994; cited from earlier work
# Chain of human MC-4-R (P32245 whole entry): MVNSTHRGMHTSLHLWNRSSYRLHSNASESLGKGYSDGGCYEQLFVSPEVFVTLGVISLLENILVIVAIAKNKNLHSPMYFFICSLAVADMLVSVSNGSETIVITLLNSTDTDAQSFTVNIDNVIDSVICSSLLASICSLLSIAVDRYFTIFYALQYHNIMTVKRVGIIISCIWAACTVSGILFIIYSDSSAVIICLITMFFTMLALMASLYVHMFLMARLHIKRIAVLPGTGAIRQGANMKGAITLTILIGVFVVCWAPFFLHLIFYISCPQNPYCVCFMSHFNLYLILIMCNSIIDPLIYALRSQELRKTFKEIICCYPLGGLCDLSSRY
# rat MC-3 receptor = target: T3, rat MC-3 receptor (Rattus norvegicus, UniProt P32244); assay: competition of [Nle4,D-Phe7]α-MSH binding to rat MC-3 receptor; conditions: peptide about 60% pure; IC50 could not be determined
# T3 construct: The entire coding region of the MC-3 receptor cDNA insert; expressed in transfected cells; host or cells: human 293 cells, pcDNA/neo I, G418-selected
# T3 sequence (P32244 whole entry): as the sequence (P32244 whole entry) above
# Source text: […]. In these experiments, murine agouti peptide was produced using a baculovirus system as described by Lu et al., (1994, Nature 371: 799-802), with the modification that the agouti peptide was purified from baculovirus supernatants by 0.6M NaCl step elution from an EconoS cation exchange column (BioRad). Agouti peptide used in these assays was approximately 60% pure.
molecule,measurement,setting,value
CSCC[C@H](NC(=O)[C@@H](NC(=O)[C@@H](N)Cc1ccc(O)cc1)C(C)C)C(=O)NCC(=O)N[C@@H](Cc1c[nH]cn1)C(=O)N[C@@H](Cc1ccccc1)C(=O)N[C@@H](CCCNC(=N)N)C(=O)N[C@@H](Cc1c[nH]c2ccccc12)C(=O)N[C@@H](CC(=O)O)C(=O)N[C@@H](CCCNC(=N)N)C(=O)N[C@@H](Cc1ccccc1)C(=O)NCC(=O)N[C@@H](CCCNC(=N)N)C(=O)N[C@@H](CCCNC(=N)N)C(=O)N[C@@H](CC(N)=O)C(=O)NCC(=O)N[C@@H](CO)C(=O)N[C@@H](CO)C(=O)N[C@@H](CO)C(=O)N[C@@H](CO)C(=O)NCC(=O)N[C@H](C(=O)NCC(=O)NCC(=O)N[C@@H](C)C(=O)N[C@@H](C)C(=O)N[C@@H](CCC(N)=O)C(=O)O)C(C)C [γ3-MSH] (H-YVMGHFRWDRFGRRNGSSSSGVGGAAQ-OH; N-terminus and C-terminus assumed),EC50,rat MC3-R,6 nM
"CSCC[C@H](NC(=O)[C@@H](NC(=O)[C@@H](N)Cc1ccc(O)cc1)C(C)C)C(=O)NCC(=O)N[C@@H](Cc1c[nH]cn1)C(=O)N[C@@H](Cc1ccccc1)C(=O)N[C@@H](CCCNC(=N)N)C(=O)N[C@@H](Cc1c[nH]c2ccccc12)C(=O)N[C@@H](CC(=O)O)C(=O)N[C@@H](CCCNC(=N)N)C(=O)N[C@@H](Cc1ccccc1)C(N)=O [γ-MSH, γ-melanocyte stimulating hormone]",activity in elevating intracellular cAMP,[1],little or no activity
CSCC[C@H](NC(=O)[C@H](CCCNC(=N)N)NC(=O)[C@H](Cc1ccc(O)cc1)NC(=O)[C@@H]1CCCN1C(=O)CNC(=O)[C@H](CCC(=O)O)NC(=O)[C@H](CC(=O)O)NC(=O)[C@H](CCCCN)NC(=O)[C@H](CCCCN)NC(=O)[C@H](CCC(=O)O)NC(=O)[C@H](C)N)C(=O)N[C@@H](CCC(=O)O)C(=O)N[C@@H](Cc1c[nH]cn1)C(=O)N[C@@H](Cc1ccccc1)C(=O)N[C@@H](CCCNC(=N)N)C(=O)N[C@@H](Cc1c[nH]c2ccccc12)C(=O)NCC(=O)N[C@@H](CO)C(=O)N1CCC[C@H]1C(=O)N1CCC[C@H]1C(=O)N[C@@H](CCCCN)C(=O)N[C@@H](CC(=O)O)C(=O)O [βMSH],EC50 (intracellular cAMP),[1]; 45 min at 37° C.,comparable to αMSH
"agouti peptide: murine agouti peptide produced using a baculovirus system, approximately 60% pure (protein) HLALEETLGDDRSLRSNSSMNSLDFSSVSIVALNKKSKKISRKEAEKRKRSSKKKASMKKVARPPPPSPCVATRDSCKPPAPACCDPCASCQCRFFGSACTCRVLNPNC",competition of αMSH activation,human MC-4-R,Specific competition
same,"competition of [Nle4,D-Phe7]α-MSH binding",rat MC-3 receptor,Specific competition
